Reference: ChEMBL document CHEMBL3585335, “Isolation and Synthetic Diversification of Jadomycin 4-Amino-l-phenylalanine” (J Nat Prod, 2015)
Calls of active or inactive are those of the source. The calls are words filed in the database; no cut-off is given here.

What was measured:
Escherichia coli [1] = test: Effect on Copper-mediated Escherichia coli pUC19 DNA cleavage at 100 uM by gel-electrophoresis analysis
Escherichia coli [2] = test: Effect on Copper-mediated Escherichia coli pBR322 DNA cleavage at 100 uM by gel-electrophoresis analysis
Escherichia coli [3] = test: Effect on photodynamic inactivation in Escherichia coli pUC19 DNA assessed as photo-mediated DNA cleavage at 10 to 100 uM by ethidium bromide gel-electrophoresis analysis

Activity (Escherichia coli [1]): inactive
Activity (Escherichia coli [2]): inactive
Activity (Escherichia coli [3]): inactive
Structure (SMILES): Cc1cc(O)c2c(c1)C1OC(=O)[C@H](Cc3ccc(NC(=O)COc4ccc5ccccc5c4)cc3)N1C1=C2C(=O)c2cccc(O[C@H]3C[C@@H](O)[C@@H](O)[C@H](C)O3)c2C1=O (stereo partly drawn)
